The numbers were not newly measured in patent US6826488B1, “Crystals, molecular complexes, and methods of developing lead compounds for inhibitors of bacterial IMPDH” (The University of Chicago, priority 2000, dated 2004), which cites them from elsewhere.

Data set [1] concerns the target bacterial IMPDH enzymes. To be noted: bacterial enzymes inhibited by MPA only at very high concentrations.
Data set [2] deals with mammalian IMPDH enzymes. As to conditions: mammalian relative to bacterial IMPDH enzymes.

With `COc1c(C)c2c(c(O)c1C/C=C(\C)CCC(=O)O)C(=O)OC2` [MPA, Mycophenolic acid], the Ki in data set [1] was more than 500 µM. The “times more sensitive to inhibition (mammalian vs bacterial IMPDH enzymes)” value in data set [2] was 10-100 times.

Usually Ki stands for a measure of affinity in units of concentration, obtained from inhibition or displacement.
